From patent US20250032454A1, “KDM1A INHIBITORS FOR THE TREATMENT OF DISEASE” (Imago Biosciences, Inc., priority 2021, published 2025)
Where two headings read alike, the source gives them in different places.

Experiments:
LSD1 = LSD1 (Homo sapiens, UniProt O60341); assay: LSD1 fluorescence coupling enzyme assay (HRP/Amplex Red, H3(1-21)K4me2 peptide), 10-dose IC50; assay type: biochemical; settings: 10 μM histone H3(1-21)K4me2 peptide substrate, 3-fold serial dilution from 100 μM
Summary of the method: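 Fluorescence coupled assay: LSD1 demethylation of 10 μM H3(1-21)K4me2 peptide produces FAD-dependent H2O2, detected via HRP/Amplex Red as resorufin (Ex/Em 535/590 nm). IC50 from 10 doses, 3-fold serial dilution from 100 μM, in duplicate.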

MV4;11 cells = assay: Cell Titer-Glo cell growth inhibition in MV4;11 cell line (Day 5 / Day 10); assay type: cell-based
Summary of the method: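 Cells seeded at 3750/well and treated with a 10-point, 4-fold dose curve from 0 to 50 µM; ATP-based luminescence viability read at Day 5. A portion is reseeded into fresh compound and media for 5 more days, read at Day 10; IC50 derived from luminescence.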

[1] = Homo sapiens, MV4-11, 120 h, Day 5, read-out: Cell Titer-Glo IC50 (5 d)
[2] = Homo sapiens, MV4-11, 240 h, Day 10, read-out: Cell Titer-Glo IC50 (10 d)

| IC50 (LSD1) | IC50 (MV4;11 cells; [1]) | IC50 (MV4;11 cells; [2]) | IC50 (MV4;11 cells; Day 5, read-out: Cell Titer-Glo IC50 (5 d)) | Compound |
| --- | --- | --- | --- | --- |
| < 500 nM | < 500 nM | < 500 nM |  | N#Cc1ccc(-c2cc(NC[C@H]3CCCNCC3)nn2-c2ccc(N3CCCC3)cc2)cc1F (single isomer, unassigned) [Example 24b] |
| < 500 nM |  | < 500 nM |  | Cn1nc2ccc(-n3nc(NC[C@H]4CCC[C@H](N)C4)cc3-c3ccc(C#N)c(F)c3)cc2c1Cl [Example 14SS, 4-(3-((((1S,3S)-3-aminocyclohexyl)methyl)amino)-1-(3-chloro-2-methyl-2H-indazol-5-yl)-1H-pyrazol-5-yl)-2-fluorobenzonitrile] |
| < 500 nM | < 500 nM | < 500 nM |  | N#Cc1ccc(-c2cc(NC[C@H]3CCCNCC3)nn2-c2ccc(N3CCN(CCO)CC3)cc2)cc1F (single isomer, unassigned) [Example 27b] |
| < 500 nM | < 500 nM |  |  | Cn1cc2cc(-n3nc(NC[C@H]4CCNC4)cc3-c3ccc(C#N)c(F)c3)ccc2n1 [Example 21S, (S)-2-fluoro-4-(1-(2-methyl-2H-indazol-5-yl)-3-((pyrrolidin-3-ylmethyl)amino)-1H-pyrazol-5-yl)benzonitrile] |
| < 500 nM |  | < 500 nM |  | Cn1cc2cc(-n3nc(NC[C@H]4CCC[C@H](N)C4)cc3-c3ccc(C#N)c(F)c3)ccc2n1 [Example 13SS, 4-(3-((((1S,3S)-3-aminocyclohexyl)methyl)amino)-1-(2-methyl-2H-indazol-5-yl)-1H-pyrazol-5-yl)-2-fluorobenzonitrile] |
| < 500 nM | < 500 nM | < 500 nM |  | N#Cc1ccc(-c2cc(NC[C@H]3CCCNCC3)nn2-c2ccc(N3CCS(=O)(=O)CC3)cc2)cc1F (single isomer, unassigned) [Example 26b] |
| < 500 nM | 500 to 1000 nM | < 500 nM |  | N#Cc1ccc(-c2cc(NC[C@@H]3CCCNCC3)nn2-c2ccc(N3CCN(CCO)CC3)cc2)cc1F (single isomer, unassigned) [Example 27a] |

Continued, compound first:

| Compound | IC50 (LSD1) | IC50 (MV4;11 cells; [1]) | IC50 (MV4;11 cells; [2]) | IC50 (MV4;11 cells; Day 5, read-out: Cell Titer-Glo IC50 (5 d)) |
| --- | --- | --- | --- | --- |
| CC(C)n1ncc2cc(-n3nc(NC[C@@H]4CCC[C@@H](N)C4)cc3-c3ccc(C#N)c(F)c3)ccc21 [Example 73, 4-(3-((((1R,3R)-3-aminocyclohexyl)methyl)amino)-1-(1-isopropyl-1H-indazol-5-yl)-1H-pyrazol-5-yl)-2-fluorobenzonitrile] | < 500 nM | 500 to 1000 nM | < 500 nM |  |
| COc1ccc(-n2nc(NC[C@H]3CCC[C@H](N)C3)cc2-c2ccc(C(F)(F)F)c(F)c2)cc1 [Example 18, N-(((1S,3S)-3-aminocyclohexyl)methyl)-5-(3-fluoro-4-(trifluoromethyl)phenyl)-1-(4-methoxyphenyl)-1H-pyrazol-3-amine] | 1000 to 10000 nM | 500 to 1000 nM | 500 to 1000 nM |  |
| N#Cc1ccc(-c2cc(NC[C@H]3CCC[C@H](N)C3)nn2-c2cccc(-c3cnn(CCO)c3)c2)cc1F [Example 57, 4-(3-((((1S,3S)-3-aminocyclohexyl)methyl)amino)-1-(3-(1-(2-hydroxyethyl)-1H-pyrazol-4-yl)phenyl)-1H-pyrazol-5-yl)-2-fluorobenzonitrile] | < 500 nM | 1000 to 10000 nM | < 500 nM |  |
| N#Cc1ccc(-c2cc(NC[C@H]3CCC[C@H](N)C3)nn2-c2ccc3nn(-c4ccccc4)cc3c2)cc1F [Example 16, 4-(3-((((1S,3S)-3-aminocyclohexyl)methyl)amino)-1-(2-phenyl-2H-indazol-5-yl)-1H-pyrazol-5-yl)-2-fluorobenzonitrile] | < 500 nM | < 500 nM | < 500 nM |  |
| Cn1ncc2cc(-n3nc(NC[C@H]4CCC[C@@H](N)C4)cc3-c3ccc(C#N)c(F)c3)ccc21 (single isomer, unassigned) [Example 7a] | 500 to 1000 nM | 1000 to 10000 nM |  |  |
| Cn1cc2cc(-n3nc(NC[C@H]4CCC[C@H](N)C4)c(Cl)c3-c3ccc(C#N)c(F)c3)ccc2n1 [Example 37, 4-(3-((((1S,3S)-3-aminocyclohexyl)methyl)amino)-4-chloro-1-(2-methyl-2H-indazol-5-yl)-1H-pyrazol-5-yl)-2-fluorobenzonitrile] | < 500 nM | < 500 nM | < 500 nM |  |
| COc1ccc(-n2nc(NCC3CCCNCC3)cc2-c2ccc(C#N)c(F)c2)cc1 (centres unmarked) [Example 22, 4-(3-((azepan-4-ylmethyl)amino)-1-(4-methoxyphenyl)-1H-pyrazol-5-yl)-2-fluorobenzonitrile] | < 500 nM | 1000 to 10000 nM | < 500 nM |  |
| Cc1ccc(-n2nc(NC[C@H]3CCC[C@H](N)C3)cc2-c2ccc(C#N)c(F)c2)cc1 [Example 12SS, 4-(3-((((1S,3S)-3-aminocyclohexyl)methyl)amino)-1-(p-tolyl)-1H-pyrazol-5-yl)-2-fluorobenzonitrile] | < 500 nM | < 500 nM | < 500 nM |  |
| N#Cc1ccc(-c2cc(NC[C@H]3CCC[C@H](N)C3)nn2-c2ccc(-c3cn[nH]c3)cc2)cc1F [Example 52, 4-(1-(4-(1H-pyrazol-4-yl)phenyl)-3-((((1S,3S)-3-aminocyclohexyl)methyl)amino)-1H-pyrazol-5-yl)-2-fluorobenzonitrile] | < 500 nM | < 500 nM | < 500 nM |  |
| N#Cc1ccc(-c2cc(NC[C@@H]3CCC[C@@H](N)C3)nn2-c2ccc3nn(CCO)cc3c2)cc1F [Example 70, 4-(3-((((1R,3R)-3-aminocyclohexyl)methyl)amino)-1-(2-(2-hydroxyethyl)-2H-indazol-5-yl)-1H-pyrazol-5-yl)-2-fluorobenzonitrile] | < 500 nM | 1000 to 10000 nM | < 500 nM |  |
| N#Cc1ccc(-c2cc(NC[C@H]3CCC[C@H](N)C3)nn2-c2ccc(C(=O)N3CCCC3)cc2)cc1F [Example 63, 4-(3-((((1S,3S)-3-aminocyclohexyl)methyl)amino)-1-(4-(pyrrolidine-1-carbonyl)phenyl)-1H-pyrazol-5-yl)-2-fluorobenzonitrile] | < 500 nM | < 500 nM | < 500 nM |  |
| COc1ccc(-n2nc(NC[C@H]3CC[C@@H](N)C3)cc2-c2ccc(C#N)c(F)c2)cc1 (single isomer, unassigned) [Example 4a] | < 500 nM | < 500 nM |  |  |
| N#Cc1ccc(-c2cc(NC[C@H]3CCC[C@H](N)C3)nn2-c2cccc(-c3cn[nH]c3)c2)cc1F [Example 53, 4-(1-(3-(1H-pyrazol-4-yl)phenyl)-3-((((1S,3S)-3-aminocyclohexyl)methyl)amino)-1H-pyrazol-5-yl)-2-fluorobenzonitrile] | < 500 nM | 500 to 1000 nM | < 500 nM |  |
| N#Cc1ccc(-c2cc(NCC3CCCNCC3)nn2-c2ccc(N3CCN(CCO)CC3)cc2)cc1F (centres unmarked) [Example 27, 4-(3-((azepan-4-ylmethyl)amino)-1-(4-(4-(2-hydroxyethyl)piperazin-1-yl)phenyl)-1H-pyrazol-5-yl)-2-fluorobenzonitrile] | < 500 nM | < 500 nM | < 500 nM |  |
| N#Cc1ccc(-c2cc(NC[C@H]3CCC[C@H](N)C3)nn2-c2ccc(N3CCN(CCO)CC3)cc2)cc1F [Example 46, 4-(3-((((1S,3S)-3-aminocyclohexyl)methyl)amino)-1-(4-(4-(2-hydroxyethyl)piperazin-1-yl)phenyl)-1H-pyrazol-5-yl)-2-fluorobenzonitrile] | < 500 nM | < 500 nM | < 500 nM |  |
| N#Cc1ccc(-c2cc(NC[C@H]3CCC[C@H](N)C3)nn2-c2ccc(-n3ccnn3)cc2)cc1F [Example 61, 4-(1-(4-(1H-1,2,3-triazol-1-yl)phenyl)-3-((((1S,3S)-3-aminocyclohexyl)methyl)amino)-1H-pyrazol-5-yl)-2-fluorobenzonitrile] | < 500 nM | < 500 nM | < 500 nM |  |
| CS(=O)(=O)N1CCN(c2cccc(-n3nc(NC[C@H]4CCC[C@H](N)C4)cc3-c3ccc(C#N)c(F)c3)c2)CC1 [Example 49, 4-(3-((((1S,3S)-3-aminocyclohexyl)methyl)amino)-1-(3-(4-(methylsulfonyl)piperazin-1-yl)phenyl)-1H-pyrazol-5-yl)-2-fluorobenzonitrile] | 1000 to 10000 nM | 1000 to 10000 nM | < 500 nM |  |
| N#Cc1ccc(-c2cc(NC[C@H]3CCC[C@H](N)C3)nn2-c2ccc(N3CCCC3)cc2)cc1F [Example 19, 4-(3-((((1S,3S)-3-aminocyclohexyl)methyl)amino)-1-(4-(pyrrolidin-1-yl)phenyl)-1H-pyrazol-5-yl)-2-fluorobenzonitrile] | < 500 nM | < 500 nM | < 500 nM |  |
| N#Cc1ccc(-c2cc(NC[C@H]3CCC[C@H](N)C3)nn2-c2ccc3c(cnn3-c3ccccc3)c2)cc1F [Example 15, 4-(3-((((1S,3S)-3-aminocyclohexyl)methyl)amino)-1-(1-phenyl-1H-indazol-5-yl)-1H-pyrazol-5-yl)-2-fluorobenzonitrile] | < 500 nM | < 500 nM | < 500 nM |  |
| (S)-4-(3-(3-aminopiperidin-1-yl)-1-(p-tolyl)-1H-pyrazol-5-yl)-2-fluorobenzonitrile/(S)-4-(5-(3-aminopiperidin-1-yl)-1-(p-tolyl)-1H-pyrazol-3-yl)-2-fluorobenzonitrile [Example 39] | < 500 nM |  |  | 1000 to 10000 nM |
| COc1ccc(-n2nc(NCC3CCCNC3)cc2-c2ccc(C#N)c(F)c2)cc1 (centres unmarked) [Example 3, 2-fluoro-4-(1-(4-methoxyphenyl)-3-((piperidin-3-ylmethyl)amino)-1H-pyrazol-5-yl)benzonitrile] | < 500 nM | < 500 nM |  |  |
